Measurements as given in BindingDB's records for doi:10.1016/0167-0115(94)90537-1 (Universit&Eacute, 1994).
Square brackets hold non-standard residues; d marks the D form. Peptide text beside a SMILES is read from it. ξ: configuration not given here. Ile(3ξ) = CCC(C)[C@H](N)C(=O)O

Molecular target: T1, VIP peptides (Rattus norvegicus, UniProt P01283)
T1 sequence (P01283 whole entry): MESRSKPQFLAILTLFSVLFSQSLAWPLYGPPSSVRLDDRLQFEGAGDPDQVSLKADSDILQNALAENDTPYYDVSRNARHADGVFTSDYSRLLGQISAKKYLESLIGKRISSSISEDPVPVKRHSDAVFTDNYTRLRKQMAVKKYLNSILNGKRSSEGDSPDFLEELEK

Row | Ki [nM] | SMILES
1 | 800 | CCC(C)[C@H](NC(=O)CN)C(=O)N[C@@H](Cc1ccccc1)C(=O)N[C@H](C(=O)N[C@@H](CC(=O)O)C(=O)N[C@@H](CO)C(=O)N[C@@H](Cc1ccc(O)cc1)C(=O)N[C@@H](CO)C(=O)N[C@@H](CCCN=C(N)N)C(=O)N[C@@H](Cc1ccc(O)cc1)C(=O)N[C@@H](CCCN=C(N)N)C(=O)N[C@@H](CCCCN)C(=O)N[C@@H](CCC(N)=O)C(=O)N[C@@H](CCSC)C(=O)N[C@@H](C)C(=O)N[C@H](C(=O)N[C@@H](CCCCN)C(=O)N[C@@H](CCCCN)C(=O)N[C@@H](Cc1ccc(O)cc1)C(=O)N[C@@H](CC(C)C)C(=O)N[C@@H](C)C(=O)N[C@@H](C)C(=O)N[C@H](C(=O)N[C@@H](CC(C)C)C(=O)NCC(=O)N[C@@H](CCCCN)C(=O)N[C@@H](CCCN=C(N)N)C(=O)N[C@@H](Cc1ccc(O)cc1)C(=O)N[C@@H](CCCCN)C(=O)N[C@@H](CCC(N)=O)C(=O)N[C@@H](CCCN=C(N)N)C(=O)N[C@H](C(=O)N[C@@H](CCCCN)C(=O)N[C@@H](CC(N)=O)C(=O)N[C@@H](CCCCN)C(N)=O)C(C)C)C(C)C)C(C)C)[C@@H](C)O (some centres not stated) [PACAP(4-38)] (H-G[Ile(3ξ)]FTDSYSRYRKQMAVKKYLAAVLGKRYKQRVKNK-NH2)
2 | 3000 | CC[C@H](C)[C@H](NC(=O)[C@H](CO)NC(=O)[C@H](CC(N)=O)NC(=O)[C@H](CC(C)C)NC(=O)[C@H](Cc1ccc(O)cc1)NC(=O)[C@H](CCCCN)NC(=O)[C@H](CCCCN)NC(=O)[C@@H](NC(=O)[C@H](C)NC(=O)[C@H](CCSC)NC(=O)[C@H](CCC(N)=O)NC(=O)[C@H](CCCCN)NC(=O)[C@H](CCCN=C(N)N)NC(=O)[C@H](CC(C)C)NC(=O)[C@H](CCCN=C(N)N)NC(=O)[C@@H](NC(=O)[C@H](Cc1ccc(O)cc1)NC(=O)[C@H](CC(N)=O)NC(=O)[C@H](CC(=O)O)NC(=O)[C@@H](NC(=O)[C@H](Cc1ccccc1)NC(=O)[C@@H](NC(=O)[C@H](C)NC(=O)[C@@H](N)CC(=O)O)C(C)C)[C@@H](C)O)[C@@H](C)O)C(C)C)C(=O)N[C@@H](CC(C)C)C(=O)N[C@@H](CC(N)=O)C(N)=O [VIP(3-28)] (H-DAVFTDNYTRLRKQMAVKKYLNSILN-NH2)
3 | 200 | CC[C@H](C)[C@H](NC(=O)[C@H](CO)NC(=O)[C@H](CC(N)=O)NC(=O)[C@H](CC(C)C)NC(=O)[C@H](Cc1ccc(O)cc1)NC(=O)[C@H](CCCCN)NC(=O)[C@H](CCCCN)NC(=O)[C@@H](NC(=O)[C@H](C)NC(=O)[C@H](CCSC)NC(=O)[C@H](CCC(N)=O)NC(=O)[C@H](CCCCN)NC(=O)[C@H](CCCN=C(N)N)NC(=O)[C@H](CC(C)C)NC(=O)[C@H](CCCN=C(N)N)NC(=O)[C@@H](NC(=O)[C@H](Cc1ccc(O)cc1)NC(=O)[C@H](CC(N)=O)NC(=O)[C@H](CC(=O)O)NC(=O)[C@@H](NC(=O)[C@H](Cc1ccccc1)NC(=O)[C@@H](NC(=O)[C@H](C)NC(=O)[C@H](CC(=O)O)NC(=O)[C@@H](N)CO)C(C)C)[C@@H](C)O)[C@@H](C)O)C(C)C)C(=O)N[C@@H](CC(C)C)C(=O)N[C@@H](CC(N)=O)C(N)=O [VIP(2-28)] (H-SDAVFTDNYTRLRKQMAVKKYLNSILN-NH2)
4 | 300 | CC[C@H](C)[C@H](NC(=O)CNC(=O)[C@H](CC(=O)O)NC(=O)[C@H](CO)NC(=O)[C@@H](N)Cc1ccccc1)C(=O)N[C@@H](Cc1ccccc1)C(=O)N[C@H](C(=O)N[C@@H](CC(=O)O)C(=O)N[C@@H](CO)C(=O)N[C@@H](Cc1ccc(O)cc1)C(=O)N[C@@H](CO)C(=O)N[C@@H](CCCN=C(N)N)C(=O)N[C@@H](Cc1ccc(O)cc1)C(=O)N[C@@H](CCCN=C(N)N)C(=O)N[C@@H](CCCCN)C(=O)N[C@@H](CCC(N)=O)C(=O)N[C@@H](CCSC)C(=O)N[C@@H](C)C(=O)N[C@H](C(=O)N[C@@H](CCCCN)C(=O)N[C@@H](CCCCN)C(=O)N[C@@H](Cc1ccc(O)cc1)C(=O)N[C@@H](CC(C)C)C(=O)N[C@@H](C)C(=O)N[C@@H](C)C(=O)N[C@H](C(=O)N[C@@H](CC(C)C)C(N)=O)C(C)C)C(C)C)[C@@H](C)O [[Phe1]PACAP(1-27)]
5 | 30 | CC[C@H](C)[C@H](NC(=O)[C@H](CO)NC(=O)[C@H](CC(N)=O)NC(=O)[C@H](CC(C)C)NC(=O)[C@H](Cc1ccc(O)cc1)NC(=O)[C@H](CCCCN)NC(=O)[C@H](CCCCN)NC(=O)[C@@H](NC(=O)[C@H](C)NC(=O)[C@H](CCSC)NC(=O)[C@H](CCC(N)=O)NC(=O)[C@H](CCCCN)NC(=O)[C@H](CCCN=C(N)N)NC(=O)[C@H](CC(C)C)NC(=O)[C@H](CCCN=C(N)N)NC(=O)[C@@H](NC(=O)[C@H](Cc1ccc(O)cc1)NC(=O)[C@H](CC(N)=O)NC(=O)[C@H](CC(=O)O)NC(=O)[C@@H](NC(=O)[C@H](Cc1ccccc1)NC(=O)[C@@H](NC(=O)[C@H](C)NC(=O)[C@H](CC(=O)O)NC(=O)[C@H](CO)NC(=O)[C@@H](N)Cc1ccccc1)C(C)C)[C@@H](C)O)[C@@H](C)O)C(C)C)C(=O)N[C@@H](CC(C)C)C(=O)N[C@@H](CC(N)=O)C(N)=O [[Phe1]VIP] (H-FSDAVFTDNYTRLRKQMAVKKYLNSILN-NH2)
6 | 80 | CCC(C)[C@H](NC(=O)CNC(=O)[C@H](CC(=O)O)NC(=O)[C@@H](N)CO)C(=O)N[C@@H](Cc1ccccc1)C(=O)N[C@H](C(=O)N[C@@H](CC(=O)O)C(=O)N[C@@H](CO)C(=O)N[C@@H](Cc1ccc(O)cc1)C(=O)N[C@@H](CO)C(=O)N[C@@H](CCCN=C(N)N)C(=O)N[C@@H](Cc1ccc(O)cc1)C(=O)N[C@@H](CCCN=C(N)N)C(=O)N[C@@H](CCCCN)C(=O)N[C@@H](CCC(N)=O)C(=O)N[C@@H](CCSC)C(=O)N[C@@H](C)C(=O)N[C@H](C(=O)N[C@@H](CCCCN)C(=O)N[C@@H](CCCCN)C(=O)N[C@@H](Cc1ccc(O)cc1)C(=O)N[C@@H](CC(C)C)C(=O)N[C@@H](C)C(=O)N[C@@H](C)C(=O)N[C@H](C(=O)N[C@@H](CC(C)C)C(=O)NCC(=O)N[C@@H](CCCCN)C(=O)N[C@@H](CCCN=C(N)N)C(=O)N[C@@H](Cc1ccc(O)cc1)C(=O)N[C@@H](CCCCN)C(=O)N[C@@H](CCC(N)=O)C(=O)N[C@@H](CCCN=C(N)N)C(=O)N[C@H](C(=O)N[C@@H](CCCCN)C(=O)N[C@@H](CC(N)=O)C(=O)N[C@@H](CCCCN)C(N)=O)C(C)C)C(C)C)C(C)C)[C@@H](C)O (some centres not stated) [PACAP(2-38)] (H-SDG[Ile(3ξ)]FTDSYSRYRKQMAVKKYLAAVLGKRYKQRVKNK-NH2)

Row | SMILES | Ki [nM]
7 | CC[C@H](C)[C@H](NC(=O)[C@H](CO)NC(=O)[C@H](CC(N)=O)NC(=O)[C@H](CC(C)C)NC(=O)[C@H](Cc1ccc(O)cc1)NC(=O)[C@H](CCCCN)NC(=O)[C@H](CCCCN)NC(=O)[C@@H](NC(=O)[C@H](C)NC(=O)[C@H](CCSC)NC(=O)[C@H](CCC(N)=O)NC(=O)[C@H](CCCCN)NC(=O)[C@H](CCCN=C(N)N)NC(=O)[C@H](CC(C)C)NC(=O)[C@H](CCCN=C(N)N)NC(=O)[C@@H](NC(=O)[C@H](Cc1ccc(O)cc1)NC(=O)[C@H](CC(N)=O)NC(=O)[C@H](CC(=O)O)NC(=O)[C@@H](NC(=O)[C@H](Cc1ccccc1)NC(=O)[C@@H](NC(=O)[C@H](C)NC(=O)[C@H](CC(=O)O)NC(=O)[C@H](CO)NC(=O)[C@H](Cc1cnc[nH]1)NC(C)=O)C(C)C)[C@@H](C)O)[C@@H](C)O)C(C)C)C(=O)N[C@@H](CC(C)C)C(=O)N[C@@H](CC(N)=O)C(N)=O [Acetyl-His1-VIP] | 15
